Assays:
Type in all cases: physicochemical
[1] = Water solubility testing (saturated solution in distilled water, UV-vis at 347 nm)
Experimental: The finished dosage form contains lyophilized amorphous Tigecycline respectively Tigecycline hydrochloride. Before lyophilizing, Tigecycline respectively Tigecycline hydrochloride is dissolved in water, thus water solubility is an important factor to consider.
A UV-vis Lambda 35 spectrophotometer (Perkin-Elmer) was used (λ=347 nm, 1.0 cm quartz cells). Perkin Elmer® UV Win Lab-5.1 software was used.
A saturated solution of Tigecycline respectively Tigecycline hydrochloride in distilled water was prepared and the suspension was stirred at room temperature for 30 minutes with a stirring speed of 1000 U/min. The suspension was filtrated through a 0.45 μm filter. Finally the resulting solution was diluted 10000-fold and measured against water at a wavelength of 347 nm.

[2] = Thermal stability: 4-Epi-Tigecycline and total impurities at ambient conditions and after 7 days at 80° C.
Source text: Tigecycline must be available in a physical stable form as well, in order to avoid degradation and as a consequence the building of undesired byproducts.

[3] = Water content on storage at defined relative humidity at 25° C.
Experimental: The water content of crystalline form A of Tigecycline hydrochloride may vary from about 0-6.0% e.g. the water content is 0% when stored at 1.7% relative humidity at 25° C., 2.7% when stored at 42.7% relative humidity at 25° C. and 5.8% when stored at 80% relative humidity at 25° C.

[4] = Conversion into other crystalline or amorphous forms on storing at elevated temperature; details: after storing for 7 days at 80° C.
[5] = Storage stability of lyophilized amorphous Tigecycline hydrochloride at room temperature; details: stored for about 9 months at room temperature
Experimental: Moreover crystalline forms A and B of Tigecycline hydrochloride of the present invention show better physical stability than amorphous Tigecycline hydrochloride. For example amorphous Tigecycline hydrochloride was prepared by lyophilization and stored for about 9 months at room temperature. […] Therefore amorphous Tigecycline hydrochloride is not suitable as an intermediate for the formulation of an anti-infective medicament, due to the low stability.

[6] = after storing for 7 days at 80° C.

CN(C)c1cc(NC(=O)CNC(C)(C)C)c(O)c2c1C[C@H]1C[C@H]3[C@H](N(C)C)C(O)=C(C(N)=O)C(=O)[C@@]3(O)C(O)=C1C2=O.Cl [Form B, Tigecycline hydrochloride]
Water solubility, CONCENTRATION ([1]; saturated solution in distilled water, stirred 30 minutes at room temperature, filtered 0.45 μm, hydrochloride): 323 mg/mL | 4-EPI-TIGECYCLINE AT AMBIENT CONDITIONS ([2]; listed as B, hydrochloride): 0.93 | TOTAL IMPURITIES AT AMBIENT CONDITIONS ([2]; listed as B, hydrochloride): 1.91

CN(C)c1cc(NC(=O)CNC(C)(C)C)c(O)c2c1C[C@H]1C[C@H]3[C@H](N(C)C)C(O)=C(C(N)=O)C(=O)[C@@]3(O)C(O)=C1C2=O [WO 2006/128150 I, (4S,4aS,5aR,12aS)-4,7-Bis(dimethylamino)-9-[[[(1,1-dimethylethyl)amino]acetyl]amino]-1,4,4a,5,5a,6,11,12a-octahydro-3,10,12,12a-tetrahydroxy-1,11-dioxo-2-naphthacenecarboxamide]
change in total impurities (in words) [2, 6]: tremendous increase | 4-EPI-TIGECYCLINE AT AMBIENT CONDITIONS [2]: 0.36 | TOTAL IMPURITIES AT AMBIENT CONDITIONS [2]: 0.75

CN(C)c1cc(NC(=O)CNC(C)(C)C)c(O)c2c1C[C@H]1C[C@H]3[C@H](N(C)C)C(O)=C(C(N)=O)C(=O)[C@@]3(O)C(O)=C1C2=O [WO 2006/128150 III, (4S,4aS,5aR,12aS)-4,7-Bis(dimethylamino)-9-[[[(1,1-dimethylethyl)amino]acetyl]amino]-1,4,4a,5,5a,6,11,12a-octahydro-3,10,12,12a-tetrahydroxy-1,11-dioxo-2-naphthacenecarboxamide]
Water solubility, CONCENTRATION ([1]; saturated solution in distilled water, stirred 30 minutes at room temperature, filtered 0.45 μm): 174 mg/mL | 4-EPI-TIGECYCLINE 7 DAYS AT 80° C. ([2]; after storing 7 days at 80° C.): 2.18 | TOTAL IMPURITIES 7 DAYS AT 80° C. ([2]; after storing 7 days at 80° C.): 4.46% | 4-EPI-TIGECYCLINE AT AMBIENT CONDITIONS [2]: 0.16 | TOTAL IMPURITIES AT AMBIENT CONDITIONS [2]: 0.16%

CN(C)c1cc(NC(=O)CNC(C)(C)C)c(O)c2c1C[C@H]1C[C@H]3[C@H](N(C)C)C(O)=C(C(N)=O)C(=O)[C@@]3(O)C(O)=C1C2=O [WO 2006/128150 II, (4S,4aS,5aR,12aS)-4,7-Bis(dimethylamino)-9-[[[(1,1-dimethylethyl)amino]acetyl]amino]-1,4,4a,5,5a,6,11,12a-octahydro-3,10,12,12a-tetrahydroxy-1,11-dioxo-2-naphthacenecarboxamide]
change in total impurities (in words) [2, 6]: tremendous increase | 4-EPI-TIGECYCLINE AT AMBIENT CONDITIONS [2]: 1.04 | TOTAL IMPURITIES AT AMBIENT CONDITIONS [2]: 1.60

CN(C)c1cc(NC(=O)CNC(C)(C)C)c(O)c2c1C[C@H]1C[C@H]3[C@H](N(C)C)C(O)=C(C(N)=O)C(=O)[C@@]3(O)C(O)=C1C2=O [WO 2007/127292 II, (4S,4aS,5aR,12aS)-4,7-Bis(dimethylamino)-9-[[[(1,1-dimethylethyl)amino]acetyl]amino]-1,4,4a,5,5a,6,11,12a-octahydro-3,10,12,12a-tetrahydroxy-1,11-dioxo-2-naphthacenecarboxamide]
4-EPI-TIGECYCLINE AT AMBIENT CONDITIONS ([2]; listed as WO2007/127792 II): 0.17 | TOTAL IMPURITIES AT AMBIENT CONDITIONS ([2]; listed as WO2007/127792 II): 0.24

CN(C)c1cc(NC(=O)CNC(C)(C)C)c(O)c2c1C[C@H]1C[C@H]3[C@H](N(C)C)C(O)=C(C(N)=O)C(=O)[C@@]3(O)C(O)=C1C2=O [WO 2006/128150 V, (4S,4aS,5aR,12aS)-4,7-Bis(dimethylamino)-9-[[[(1,1-dimethylethyl)amino]acetyl]amino]-1,4,4a,5,5a,6,11,12a-octahydro-3,10,12,12a-tetrahydroxy-1,11-dioxo-2-naphthacenecarboxamide]
4-EPI-TIGECYCLINE AT AMBIENT CONDITIONS [2]: <0.05 | TOTAL IMPURITIES AT AMBIENT CONDITIONS [2]: 0.22

CN(C)c1cc(NC(=O)CNC(C)(C)C)c(O)c2c1C[C@H]1C[C@H]3[C@H](N(C)C)C(O)=C(C(N)=O)C(=O)[C@@]3(O)C(O)=C1C2=O [WO 2007/127292 I, (4S,4aS,5aR,12aS)-4,7-Bis(dimethylamino)-9-[[[(1,1-dimethylethyl)amino]acetyl]amino]-1,4,4a,5,5a,6,11,12a-octahydro-3,10,12,12a-tetrahydroxy-1,11-dioxo-2-naphthacenecarboxamide]
4-EPI-TIGECYCLINE AT AMBIENT CONDITIONS ([2]; listed as WO2007/127792 I): 0.34 | TOTAL IMPURITIES AT AMBIENT CONDITIONS ([2]; listed as WO2007/127792 I): 0.59

CN(C)c1cc(NC(=O)CNC(C)(C)C)c(O)c2c1C[C@H]1C[C@H]3[C@H](N(C)C)C(O)=C(C(N)=O)C(=O)[C@@]3(O)C(O)=C1C2=O.Cl [Form A, Tigecycline hydrochloride]
water content, span of variation ([3]; may vary, depending on relative humidity): 0-6.0% | water content ([3]; stored at 1.7% relative humidity at 25° C.): 0% | water content ([3]; stored at 42.7% relative humidity at 25° C.): 2.7% | water content ([3]; stored at 80% relative humidity at 25° C.): 5.8% | conversion into other crystalline or amorphous forms [4]: did not convert | water solubility compared with the other crystalline forms (in words) [1]: highest water solubility | solubility thermodynamic at 30 min ([1]; water, saturated solution in distilled water, stirred 30 minutes at room temperature, filtered 0.45 μm, read-out: Water solubility, CONCENTRATION): 503 mg/mL | change in 4-Epi-Tigecycline content (in words) [2, 6]: practically did not change | change in total impurities (in words) [2, 6]: low | 4-EPI-TIGECYCLINE AT AMBIENT CONDITIONS ([2]; listed as A, hydrochloride): 0.84 | TOTAL IMPURITIES AT AMBIENT CONDITIONS ([2]; listed as A, hydrochloride): 1.07

CN(C)c1cc(NC(=O)CNC(C)(C)C)c(O)c2c1C[C@H]1C[C@H]3[C@H](N(C)C)C(O)=C(C(N)=O)C(=O)[C@@]3(O)C(O)=C1C2=O.Cl [amorphous Tigecycline hydrochloride, Tigecycline hydrochloride]
4-Epi-Tigecycline content [5]: 19.56% | total impurities [5]: 21.55%

CN(C)c1cc(NC(=O)CNC(C)(C)C)c(O)c2c1C[C@H]1C[C@H]3[C@H](N(C)C)C(O)=C(C(N)=O)C(=O)[C@@]3(O)C(O)=C1C2=O [WO 2006/128150 IV, (4S,4aS,5aR,12aS)-4,7-Bis(dimethylamino)-9-[[[(1,1-dimethylethyl)amino]acetyl]amino]-1,4,4a,5,5a,6,11,12a-octahydro-3,10,12,12a-tetrahydroxy-1,11-dioxo-2-naphthacenecarboxamide]
4-EPI-TIGECYCLINE AT AMBIENT CONDITIONS [2]: 0.23 | TOTAL IMPURITIES AT AMBIENT CONDITIONS [2]: 0.40

— patent US8252946B2, “Crystalline forms of tigecycline hydrochloride” (Sandoz AG, priority 2007, dated 2012)
